Reference: paper PMC8620685, “Effect of Selected Silyl Groups on the Anticancer Activity of 3,4-Dibromo-5-Hydroxy-Furan-2(5H)-One Derivatives” (Pharmaceuticals, 2021)

System: survivin
Assay: Human Apoptosis Proteome Profiler array, survivin
Assay type: cell-based
Settings: HCT-116, 1 h exposure, 2 × IC50
Description: To explore in detail the molecular mechanism of apoptosis induction by compounds 3b and 3c, we employed Human Apoptosis Proteome Profiler arrays that allow quantification of apoptosis-related biomarkers (Figure 3C). […] Collectively, it can be concluded that silyl derivative 3b promotes cell death in HCT 116 cells by the alteration of expression levels of survivin and activation of caspase-3.
The Human Apoptosis Array Kit (R&D Systems, Abingdon, UK) was used to determine the levels of expression of apoptosis-related proteins. 2.5 × 10^5 HCT 116 wt cells were seeded on 100 mm dishes (Nunc, ThermoFisher, Waltham, MA, USA) and allowed to attach for 24 h. Then the medium was replaced with tested compounds at a concentration corresponding 2 × IC50 value and the cells were incubated in 37 °C. After 60 min the cells were lysed and the lysates were clarified by centrifugation for 30 min at 14,000× g. The total protein concentration was measured using the Protein Quantification Kit-Rapid (Sigma-Aldrich, Taufkirchen, Germany) according to the manufacturer’s instruction. The next steps followed instructions from the manufacturer of the Human Apoptosis Array Kit. The membranes were then scanned in the G:Box trans illuminator (Syngene, Cambridge, UK) and the protein expression levels were quantified by densitometric analysis using ImageJ software.

For `CC(C)[Si](OC1OC(=O)C(Br)=C1Br)(C(C)C)C(C)C` (stereo not shown) [Compound 3b, 3,4-Dibromo-5-(triisopropylsilyloxy)-furan-2(5H)-one], the survivin expression was “down-regulation of survivin”.
